Here are results for 18 compounds from patent US10125121B2, “FYN kinase inhibitors” (ROTTAPHARM BIOTECH S.R.L., priority 2015, dated 2018).

By IC50 is commonly meant the concentration that gives 50% inhibition.

In test [1] the target is active FYN (human recombinant, 62.7 kDa) (Homo sapiens, UniProt P06241). The experiment in a line: In vitro kinase assay (Z′-LYTE FRET). The conditions noted are these: read-out: IC50(nM) FYN INHIBITION
The test is classed as biochemical. The procedure:
Assays to determine the kinase inhibitory activity of compounds were performed using an automatic liquid handling device (Microlab STAR Hamilton) and Z′-LYTE™ Kinase Assay Platform, a Fluorescence Resonance Energy Transfer (FRET)-based assay platform compatible with high-throughput screening (HTS) applications. The assay employs a fluorescence-based, coupled-enzyme format and utilizes the differential sensitivity of phosphorylated and non-phosphorylated peptides to proteolytic cleavage.
All reagents were diluted in reaction buffer and the kinase reaction was carried out in a total volume of 10 μl, for 60 minutes at 25° C. The 0% Phosphorylation (i.e. no ATP) and 100% Phosphorylation (i.e. synthetically phosphorylated peptide supplied) Assay Controls, included in each plate, allowed to calculate the percent phosphorylation achieved in the specific reaction well. The 0% Inhibition and 0% Phosphorylation (i.e. 100% Inhibition) Controls define the dynamic range in the screen. At the end of incubation, a secondary reaction (the Development Reaction) started by adding 5 μl of Development Reagent, containing a site-specific protease that recognizes and cleaves non-phosphorylated peptides, and was interrupted after 60 minutes with 5 μl/sample of Stop Reagent.
The compounds were tested in a range of concentrations 10^−6-10^−9 M.
Results are expressed as percentage of inhibition and the IC50 values were calculated by non-linear curve fitting using GraphPad™ Prism software.

Test [2] relates to NF-kB activation in JB6 CI 41-5a (P+) cells. The test is described as follows: Gene reporter (GR) assay, NF-kB luciferase after TNFα stimulation. The conditions noted are these: Mus musculus; 1 h pre-treatment, 2 ng/ml TNFα for 4 h; read-out: IC50(nM) GR Inhibition. It counts as cell-based, murine. The text has this: To determine if the compounds of the invention were active also in a cellular model, a gene reporter assay was established in a cell line (JB6 CI 41-5a (P+)) know to activate Fyn kinase via an inflammatory stimuli (TNFα). GR assay measures the activation of the nuclear transcription factor NF-kB, situated down-stream the Fyn activation pathway. Products active in this analysis has to penetrate in the cell and inhibit the activation pathway of NF-kB.
The murine epithelial cell line JB6 CI 41-5a (P+) (ATCC® Cat. # CRL-2010) was stably transfected with the pGL4.32[luc2P/NFkB-RE/Hygro] vector (Promega). Clonal selection was achieved by limiting dilution in MEM (+Earle's BSS+1.5 g/l sodium bicarbonate+0.1 mM NEAA)+GlutaMAX™-I, +1 mM sodium pyruvate, +5% FBS+80 μg/ml Hygromycin B. The clones were tested for their response to TNFα stimulus. The obtained transfected cells (JB6(P+) NFkB-RE-luc2P T3-C10) contained a firefly luciferase gene (luc2P) under the control of minimal TATA promoter with multiple Nuclear Factor-kB response elements (NFkB-REs). These NFkB-REs are DNA binding sequences for the NF-kB transcription factor.
JB6(P+) NFkB-RE-luc2P T3-C10 cells were used for the analysis of NF-kB activity modulation, after TNFα stimulation, by Fyn-inhibitors (Hwang et al.; Biochem. Pharmacol. 2009, 77 (7):1213-22).
6000 cells/well were plated in a 96× well plate. After 24 h new medium without antibiotics was given. After further 24 h the cells were pre-treated with the different compounds for 1 h and then stimulated with 2 ng/ml TNFα for 4 h. In each experiments two positive standards were always used, and each tested condition was analyzed in quadruplicate.
The luciferase analysis was performed with ONE-Glo™+ToxLuciferase Reporter and Cell Viability Assay kit (Promega). This assay combined luciferase assay chemistry with a cell viability marker to better understand reporter gene expression in the context of cell health. The assay uses a two-step process. The first part of the assay was a non-lytic fluorescence assay (CellTiter-Fluor™ Cell Viability Assay) that measured the relative number of live cells in a culture population, as it measures a conserved and constitutive protease activity within live cells. The live-cell protease activity was restricted to intact viable cells and was measured using a fluorogenic, cell-permeant peptide substrate (glycyl-phenylalanyl-aminofluorocoumarin; GF-AFC). The generated fluorescent signal, proportional to the number of living cells, was measured with EnVision microplate reader (PerkinElmer) using an excitation wavelength of 400 nm and emission wavelength of 500 nm.
The second part of the assay uses the ONE-Glo™ Luciferase Assay System to quantify firefly luciferase reporter gene expression. The ONE-Glo™ Assay contained a fluoro-luciferin substrate, more tolerant to sample components than standard luciferase assay reagents. Luminescence was measured with EnVision microplate reader (PerkinElmer).
Compounds of Formula (I) were tested for their capacity to penetrate into the cell and inhibit the activation pathway of NF-kB.

Chain of active FYN (human recombinant, 62.7 kDa) (P06241 whole entry): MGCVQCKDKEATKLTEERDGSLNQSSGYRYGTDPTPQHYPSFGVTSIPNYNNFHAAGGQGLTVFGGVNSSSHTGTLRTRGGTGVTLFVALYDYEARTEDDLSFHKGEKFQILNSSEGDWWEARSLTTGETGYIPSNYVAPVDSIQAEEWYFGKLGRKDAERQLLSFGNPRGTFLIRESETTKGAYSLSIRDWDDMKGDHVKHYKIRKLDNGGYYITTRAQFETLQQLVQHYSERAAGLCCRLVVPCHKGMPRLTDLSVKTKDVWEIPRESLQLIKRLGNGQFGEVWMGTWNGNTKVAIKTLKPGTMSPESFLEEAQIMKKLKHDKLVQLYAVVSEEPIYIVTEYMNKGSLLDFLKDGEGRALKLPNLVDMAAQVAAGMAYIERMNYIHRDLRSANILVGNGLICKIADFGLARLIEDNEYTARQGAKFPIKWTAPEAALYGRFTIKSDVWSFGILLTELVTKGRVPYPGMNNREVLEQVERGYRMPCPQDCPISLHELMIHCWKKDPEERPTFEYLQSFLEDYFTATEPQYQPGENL

Turning to `Cc1nocc1C(=O)Nc1ccc(CN2CCN(c3nccc(Nc4cc(C5CC5)[nH]n4)n3)CC2)cc1` [Compound 23, N-(4-((4-(4-((5-cyclopropyl-1H-pyrazol-3-yl)amino)pyrimidin-2-yl)piperazin-1-yl)methyl)phenyl)-3-methylisoxazole-4-carboxamide], the IC50 is 103 nM in test [1] and 1930 nM in test [2]. Taken in the same sequence, the figures for `O=C(Nc1ccc(CN2CCN(c3nccc(Nc4cc(C5CC5)[nH]n4)n3)CC2)cc1)c1cccc(F)c1C(F)(F)F` [Compound 12, N-(4-((4-(4-((5-cyclopropyl-1H-pyrazol-3-yl)amino)pyrimidin-2-yl)piperazin-1-yl)methyl)phenyl)-3-fluoro-2-(trifluoromethyl)benzamide] were 29 nM and 430 nM. As for `O=C(Nc1cnc(CN2CCN(c3nccc(Nc4cc(C5CC5)[nH]n4)n3)CC2)cn1)c1ccccc1C(F)(F)F` [Compound 41, N-(5-((4-(4-((5-cyclopropyl-1H-pyrazol-3-yl)amino)pyrimidin-2-yl)piperazin-1-yl)methyl)pyrazin-2-yl)-2-(trifluoromethyl)benzamide], the IC50 in test [1] is 4 nM; in test [2], greater than 2000 nM. Taken in the same sequence, the figures for `O=C(Nc1ccc(CN2CCN(c3nccc(Nc4cc(C5CC5)[nH]n4)n3)CC2)nc1)c1ccccc1C(F)(F)F` [Compound 43, N-(6-((4-(4-((5-cyclopropyl-1H-pyrazol-3-yl)amino)pyrimidin-2-yl)piperazin-1-yl)methyl)pyridin-3-yl)-2-(trifluoromethyl)benzamide] were 27 nM and 1050 nM. On the same counts, the results for `Cc1nc(C(=O)Nc2ccc(CN3CCN(c4nccc(Nc5cc(C6CC6)[nH]n5)n4)CC3)cc2)c(C(F)(F)F)o1` [Compound 21, N-(4-((4-(4-((5-cyclopropyl-1H-pyrazol-3-yl)amino)pyrimidin-2-yl)piperazin-1-yl)methyl)phenyl)-2-methyl-5-(trifluoromethyl)oxazole-4-carboxamide] are 42 nM and 854 nM. As to `O=C(Nc1ccc(CN2CCN(c3nccc(Nc4cc(C5CC5)[nH]n4)n3)CC2)cc1)c1ccccc1OC(F)(F)F` [Compound 8, N-(4-((4-(4-((5-cyclopropyl-1H-pyrazol-3-yl)amino)pyrimidin-2-yl)piperazin-1-yl)methyl)phenyl)-2-(trifluoromethoxy)benzamide], the IC50 in test [1] turned out to be 39 nM; in test [2] it was 766 nM. Taken in the same sequence, the figures for `O=C(Nc1ccc(CN2CCN(c3nccc(Nc4cc(C5CC5)[nH]n4)n3)CC2)cc1)c1ccc(F)cc1C(F)(F)F` [Compound 14, N-(4-((4-(4-((5-cyclopropyl-1H-pyrazol-3-yl)amino)pyrimidin-2-yl)piperazin-1-yl)methyl)phenyl)-4-fluoro-2-(trifluoromethyl)benzamide] were 16 nM and 603 nM. Taken in the same sequence, the figures for `O=C(Nc1ccc(CN2CCN(c3nccc(Nc4cc(C5CC5)[nH]n4)n3)CC2)cc1)c1ccncc1C(F)(F)F` [Compound 32, N-(4-((4-(4-((5-cyclopropyl-1H-pyrazol-3-yl)amino)pyrimidin-2-yl)piperazin-1-yl)methyl)phenyl)-3-(trifluoromethyl)-isonicotinamide] were 17 nM and 1000 nM.

On to `O=C(Nc1ccc(CN2CCN(c3nccc(Nc4cc(C5CC5)[nH]n4)n3)CC2)cc1)c1c(F)cccc1C(F)(F)F` [Compound 13, N-(4-((4-(4-((5-cyclopropyl-1H-pyrazol-3-yl)amino)pyrimidin-2-yl)piperazin-1-yl)methyl)phenyl)-2-fluoro-6-(trifluoromethyl)benzamide], for which the 50% inhibitory concentration (IC50) in test [1] stood at 23 nM; in test [2], 493 nM.

For the compound `O=C(Nc1ccc(CN2CCN(c3nccc(Nc4cc(C5CC5)[nH]n4)n3)CC2)cc1)c1cnccc1C(F)(F)F` [Compound 29, N-(4-((4-(4-((5-cyclopropyl-1H-pyrazol-3-yl)amino)pyrimidin-2-yl)piperazin-1-yl)methyl)phenyl)-4-(trifluoromethyl)-nicotinamide], the half-maximal inhibitory concentration (IC50) in test [1] worked out at 8 nM; in test [2] it was 973 nM. Taken in the same sequence, the figures for `Cc1ccccc1C(=O)Nc1ccc(CN2CCN(c3nccc(Nc4cc(C5CC5)[nH]n4)n3)CC2)cc1` [Compound 4, N-(4-((4-(4-((5-cyclopropyl-1H-pyrazol-3-yl)amino)pyrimidin-2-yl)piperazin-1-yl)methyl)phenyl)-2-methylbenzamide] were 17 nM and 788 nM.

For the compound `Cc1cc(CN2CCN(c3nccc(Nc4cc(C5CC5)[nH]n4)n3)CC2)ccc1NC(=O)c1ccccc1F` [Compound 17, N-(4-((4-(4-((5-cyclopropyl-1H-pyrazol-3-yl)amino)pyrimidin-2-yl)piperazin-1-yl)methyl)-2-methylphenyl)-2-fluorobenzamide], the figures for the concentration for half-maximal inhibition (IC50) in test [1] and in test [2] were 30 nM and greater than 2000 nM, respectively. `O=C(Nc1ccc(CN2CCN(c3nccc(Nc4cc(C5CC5)[nH]n4)n3)CC2)cc1)c1ccccc1F` [Compound 3, N-(4-((4-(4-((5-cyclopropyl-1H-pyrazol-3-yl)amino)pyrimidin-2-yl)piperazin-1-yl)methyl)phenyl)-2-fluorobenzamide]: the half-maximal inhibitory concentration (IC50) in test [1] amounted to 70 nM.

For `Cc1cc(Nc2ccnc(N3CCN(Cc4ccc(NC(=O)c5ccccc5C(F)(F)F)cc4)CC3)n2)[nH]n1` [Compound 47, N-(4-((4-(4-((3-methyl-1H-pyrazol-5-yl)amino)pyrimidin-2-yl)piperazin-1-yl)methyl)phenyl)-2-(trifluoromethyl)benzamide], in test [1], the half-maximal inhibitory concentration (IC50) stood at 41 nM.

`Cn1ccnc1C(=O)Nc1ccc(CN2CCN(c3nccc(Nc4cc(C5CC5)[nH]n4)n3)CC2)cc1` [Compound 34, N-(4-((4-(4-((5-cyclopropyl-1H-pyrazol-3-yl)amino)pyrimidin-2-yl)piperazin-1-yl)methyl)phenyl)-1-methyl-1H-imidazole-2-carboxamide]: in test [1], the IC50 was 1450 nM. `O=C(Nc1ccc(CN2CCN(c3nccc(Nc4cc(C5CC5)[nH]n4)n3)CC2)nn1)c1ccccc1C(F)(F)F` [Compound 42, N-(6-((4-(4-((5-cyclopropyl-1H-pyrazol-3-yl)amino)pyrimidin-2-yl)piperazin-1-yl)methyl)pyridazin-3-yl)-2-(trifluoromethyl)benzamide]: in test [1], the half-inhibitory concentration (IC50) stood at 663 nM.

Turning to `O=C(Nc1ccc(CN2CCN(c3nccc(Nc4nnc(C5CC5)o4)n3)CC2)cc1)c1ccccc1C(F)(F)F` [Compound 44, N-(4-((4-(4-((5-cyclopropyl-1,3,4-oxadiazol-2-yl)amino)pyrimidin-2-yl)piperazin-1-yl)methyl)phenyl)-2-(trifluoromethyl)benzamide], in test [1], the IC50 was greater than 1000 nM.

Regarding `Cc1cc(Nc2cc(C3CC3)n[nH]2)nc(N2CCN(Cc3ccc(NC(=O)c4ccccc4C(F)(F)F)cc3)CC2)n1` [Compound 46, N-(4-((4-(4-((5-cyclopropyl-1H-pyrazol-3-yl)amino)-6-methylpyrimidin-2-yl)piperazin-1-yl)methyl)phenyl)-2-(trifluoromethyl)benzamide], in test [1], the half-maximal inhibitory concentration (IC50) is 29 nM.
